Reference: patent US8673913B2, “SHP-2 phosphatase inhibitor” (Case Western Reserve University, priority 2009, dated 2014)

Legend:
[1] = tested on: JMML patient bone marrow cells; experiment: JMML bone marrow cells cultured with GM-CSF (MTS), FIG. 15; format: cell-based; conditions: DMEM with GM-CSF
Experimental: FIG. 15 illustrates inhibition of growth factor-independent colony formation of myeloid progenitors with SHP-2 activating mutation E76K by active compounds. JMML patient bone marrow cells were harvested from mutant mice with SHP-2 E76K mutation and were cultured in DMEM medium supplemented GM-CSF. DMSO was included at negative controls. Cell numbers were determined using the MTS assay. Shown are the results of a representative compound #324.

[2] = tested on: myeloid progenitors, wildtype and SHP-2 E76K; experiment: hematopoietic progenitor cell colony formation assay (CFU-GM); format: cell-based, mouse
Experimental: To determine cellular response of myeloid progenitors to IL-3, bone marrow cells (5×10^4 cells/ml) freshly harvested from C57BL6 mice were assayed for colony forming units (CFUs) in 0.9% methylcellulose IMDM medium containing 30% FBS, glutamine (10^−4 M), β-mercaptoethanol (3.3×10^−5 M), and IL-3 (10 ng/ml). After 7 days of culture at 37° C. in a humidified 5% CO2 incubator, hematopoietic cell colonies (primarily CFU-GM) were counted under an inverted microscope.
FIG. 13 illustrates A). […] Bone marrow cells were harvested from wildtype and mutant mice with SHP-2 E76K mutation. IL-3 induced myeloid progenitor cell colony (CFU-GM) formation assays were performed as described in the Examples in the presence of various concentrations of active compounds. Shown are the results of a representative compound #324. B). Inhibition of growth factor-independent colony formation of myeloid progenitors with SHP-2 activating mutation E76K by active compounds. Bone marrow cells were harvested from wildtype and mutant mice with SHP-2 E76K mutation. The cells were assayed for CFU-GM without cytokines in the presence of various concentrations of active compounds. Shown are the results of a representative compound #324.

[3] = tested on: mouse embryonic fibroblasts, wildtype and SHP-2 E76K mutant; experiment: cell proliferation assay, embryonic fibroblasts wildtype and SHP-2 E76K (MTS); format: cell-based; conditions: 48 hours
Experimental: (§1) To test the effects of the active compounds on SHP-2-mediated cellular proliferation, Ba/F3, an IL-3 dependent hematopoietic cell line, mouse embryonic fibroblasts (MEFs), and H661 lung cancer cell line with SHP-2 activating mutation N58S were used for the assays. Cells were seeded into 96-well plates (2×10^4 cells/well) in the RPMI-1640 (for Ba/F3 cells) or DMEM (for MEFs and H661 cells) medium supplemented with 10% fetal bovine serum (FBS) and test compounds at various concentrations. For the Ba/F3 cell assay, recombinant mouse IL-3 (1 ng/mL) was included in the culture medium. Two days later, cell number was determined using the MTS cell proliferation kit (Promega Life Science, Madison, Wis.).
Mouse embryonic fibroblasts, wildtype and SHP-2 E76K mutant, were cultured in DMEM medium supplemented with active compounds at the indicated concentrations. DMSO was included at negative controls. Cell numbers were determined 48 hours later using the MTS assay. Shown are the results of a representative compound #324.

[4] = tested on: H661 (SHP-2 N58S) and H596 lung cancer cells; experiment: cell proliferation assay, lung cancer cells (MTS); format: cell-based; conditions: indicated concentrations 48 hours; 10 μM time course
Experimental: as §1
FIG. 14 illustrates A). […] H661 and H596 cells were cultured in DMEM medium supplemented with active compounds at the indicated concentrations. DMSO was included at negative controls. Cell numbers were determined 48 hours later using the MTS assay. Shown are the results of a representative compound #324. B). […] H661 and H596 cells were cultured in DMEM medium supplemented with active compounds (10 μM) for the indicated periods of time. DMSO was included at negative controls. Cell numbers were determined using the MTS assay. Shown are the results of a representative compound #324.

[5] = molecular target: T1, GST-LAR PTP domain (PTPRF) (Homo sapiens, UniProt P10586); experiment: in vitro phosphatase assay, LAR; format: biochemical
T1 construct: GST-LAR PTP domain purchased from Biomol International; purchased Biomol International, L.P. (Plymouth Meeting, Pa.)
T1 sequence (P10586 1352-1607 limits assumed): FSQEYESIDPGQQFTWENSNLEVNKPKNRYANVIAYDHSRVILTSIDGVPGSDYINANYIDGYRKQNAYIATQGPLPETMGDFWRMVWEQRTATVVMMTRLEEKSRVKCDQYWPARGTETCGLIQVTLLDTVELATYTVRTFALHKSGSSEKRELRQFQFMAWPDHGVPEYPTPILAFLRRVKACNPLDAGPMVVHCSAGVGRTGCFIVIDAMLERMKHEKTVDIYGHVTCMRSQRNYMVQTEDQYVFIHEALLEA
Experimental: Candidate compounds were screened using the in vitro protein tyrosine phosphatase (PTP) assay kit (Sigma, St. Lois, Mo.). […] The assay determines free phosphate generated by dephosphorylation of the PTP substrate using the Malachite Green reagent. Briefly, 0.5 μg of GST-SHP-2 PTP was incubated in 40 μL assay buffer (25 mM Tris-HCl, PH7.4, 50 mM NaCl, 5 mM DTT, and 2.5 mM EDTA) with test compounds at various concentrations or DMSO at room temperature for 30 min. The PTP substrate was then added to a final concentration of 0.2 mM. The system was incubated at 30° C. for 30 min. Finally, 50 μl of Malachite Green solution was added and OD620 was measured after 5 min. In the phosphatase assays for SHP-1, CD45, TC-PTP, PTP-MEG2 (PTPN9), and LAR (PTPRF), procedures were similar, with the exception that GST-SHP-1, GST-CD45 cytoplasmic domain, GST-TC-PTP, GST-PTP-MEG2 PTP domain, and GST-LAR PTP domain purchased from Biomol International, L.P. (Plymouth Meeting, Pa.) were used instead as the enzymes.

`Cc1cc(C)c2[nH]c3nc(SCC(=O)Nc4cccc5ccccc45)nnc3c2c1` [#324] was tested, and the “growth of JMML bone marrow cells with GM-CSF (FIG. 15)” value [1] was “inhibition”, the “growth factor-independent colony formation of E76K myeloid progenitors” value ([2]; CFU-GM without cytokines) was “Inhibition” and the “sensitivity of E76K myeloid progenitors versus wild type (IL-3 induced CFU-GM)” value ([2]; IL-3 induced colony formation) was “more sensitive”. The “sensitivity of E76K fibroblasts versus wild type fibroblasts” value [3] was “more sensitive”, the “sensitivity of H661 (N58S) cells versus H596 cells” value [4] was “more sensitive” and the IC50 [5] was 144 µM.
